The melting point is the temperature, or range, at which the solid turns liquid. In general, MIC refers to the lowest concentration found to suppress growth. As a reminder, the IC50 is the midpoint of a concentration-inhibition curve.

Data on four compounds can be found in paper PMC10415461 (Molecular Diversity, 2022).

For data set [1], the system named is tested bacterial strains (Gram positive or Gram negative: S. aureus, P. aeruginosa, E. coli). As to the kind of experiment: Antibacterial MIC range over the tested bacterial strains. Conditions: range over Gram positive and Gram negative strains. The data set is classed as cell-based. How it is done:
(§1) . Standard strains of Staphylococcus aureus (ATCC 6538), Pseudomonas aeruginosa (ATCC 10,145), and Escherichia coli (ATCC 8739) were obtained from microbiological resource center, Faculty of Agriculture, Ain Shams University, Cairo, Egypt. All isolates were maintained at -70 °C in Trypticase Soya Broth (TSB, Becton, and Dickinson) with 10% glycerol. Prior to inoculation, all isolates were subcultured at 37 °C for 24 h on Trypticase Soya Agar (TSA, Becton, and Dickinson) and TSB, respectively.
The plates were rotated slowly to ensure uniform distribution of the microorganisms and then allowed to solidify on a flat surface. After solidification, four equidistant and circular wells of 10 mm diameter were carefully punched using a sterile cork bore. Twofold serial dilutions of the tested compounds using DMSO were performed. An equal volume of 100µL of each dilution was applied separately to each well in three replicates using a micropipette. All plates were incubated at 37 °C for 24 h. The inhibition zones were measured, and their average was calculated. The MIC was calculated by plotting the natural logarithm of the concentration of each dilution of the tested compounds against the square of zones of inhibition, and a regression line was drawn through the points then the antilogarithm of the intercept on the logarithm of concentration axis gave the MIC value.

Data set [2] has as its system S. aureus (ATCC 6538). As to the kind of experiment: Antibacterial MIC, standard agar cup diffusion method. The data set is classed as cell-based, Staphylococcus aureus. Conditions: Staphylococcus aureus, ATCC6538, 37 °C, 24 h, read-out: MIC S. aureus (Gram-positive). As for the experimental part:
as §1, with “The antibacterial and antifungal activities of compounds, ketone 1, 2a-j, and 5a-i were evaluated in vitro against S. aureus (ATCC 6538), P. aeruginosa (ATCC 10,145), E. coli (ATCC 8739), and C. albicans (ATCC 10,231). […] Standard” for “. Standard”
(§2) The plates were rotated slowly to ensure uniform distribution of the microorganisms and then allowed to solidify on a flat surface. After solidification, four equidistant and circular wells of 10 mm diameter were carefully punched using a sterile cork bore. Twofold serial dilutions of the tested compounds using DMSO were performed. An equal volume of 100µL of each dilution was applied separately to each well in three replicates using a micropipette. All plates were incubated at 37 °C for 24 h. The inhibition zones were measured, and their average was calculated.

Data set [3] has as its system C. albicans (ATCC 10,231). Description: Antifungal MIC, agar cup diffusion method. The data set is classed as cell-based, Candida albicans. Conditions: Candida albicans, ATCC 10,231, 24 h, Sabouraud agar, 37 °C, read-out: MIC C. albicans (Fungi). As for the experimental part:
The antibacterial and antifungal activities of compounds, ketone 1, 2a-j, and 5a-i were evaluated in vitro against S. aureus (ATCC 6538), P. aeruginosa (ATCC 10,145), E. coli (ATCC 8739), and C. albicans (ATCC 10,231). […] The antifungal activity of compounds 1, 2a-j, and 5a-i and ketoconazole were determined according to the agar cup diffusion method at Deraya University, Faculty of Pharmacy, Department of Microbiology.
Fungal strains and culture conditions. […] Standard strain of Candida albicans (ATCC 10,231) was obtained from microbiological resource center, Faculty of Agriculture, Ain Shams University, Cairo, Egypt. The isolate was maintained at -70 °C in Trypticase Soya Broth (TSB, Becton, and Dickinson) with 10% glycerol. Prior to inoculation, the isolate was subcultured at 37 °C for 24 h on Trypticase Soya Agar (TSA, Becton, and Dickinson) and TSB, respectively.
as §2

For data set [4], the target named is S. aureus DNA gyrase (Staphylococcus aureus, UniProt P0A0K8+P20831). As to the kind of experiment: Staphylococcus aureus DNA gyrase supercoiling assay. The data set is classed as biochemical. The following applies: supercoiling of relaxed pBR322, 37 °C, 30 min; read-out: S. aureus DNA gyrase IC50 ± SD. How it is done: As antibacterial agents, fluoroquinolones act by targeting and inhibiting DNA gyrase (topo II) which is an essential enzyme involved in the DNA replication process.
Chain of S. aureus DNA gyrase (P20831 whole entry): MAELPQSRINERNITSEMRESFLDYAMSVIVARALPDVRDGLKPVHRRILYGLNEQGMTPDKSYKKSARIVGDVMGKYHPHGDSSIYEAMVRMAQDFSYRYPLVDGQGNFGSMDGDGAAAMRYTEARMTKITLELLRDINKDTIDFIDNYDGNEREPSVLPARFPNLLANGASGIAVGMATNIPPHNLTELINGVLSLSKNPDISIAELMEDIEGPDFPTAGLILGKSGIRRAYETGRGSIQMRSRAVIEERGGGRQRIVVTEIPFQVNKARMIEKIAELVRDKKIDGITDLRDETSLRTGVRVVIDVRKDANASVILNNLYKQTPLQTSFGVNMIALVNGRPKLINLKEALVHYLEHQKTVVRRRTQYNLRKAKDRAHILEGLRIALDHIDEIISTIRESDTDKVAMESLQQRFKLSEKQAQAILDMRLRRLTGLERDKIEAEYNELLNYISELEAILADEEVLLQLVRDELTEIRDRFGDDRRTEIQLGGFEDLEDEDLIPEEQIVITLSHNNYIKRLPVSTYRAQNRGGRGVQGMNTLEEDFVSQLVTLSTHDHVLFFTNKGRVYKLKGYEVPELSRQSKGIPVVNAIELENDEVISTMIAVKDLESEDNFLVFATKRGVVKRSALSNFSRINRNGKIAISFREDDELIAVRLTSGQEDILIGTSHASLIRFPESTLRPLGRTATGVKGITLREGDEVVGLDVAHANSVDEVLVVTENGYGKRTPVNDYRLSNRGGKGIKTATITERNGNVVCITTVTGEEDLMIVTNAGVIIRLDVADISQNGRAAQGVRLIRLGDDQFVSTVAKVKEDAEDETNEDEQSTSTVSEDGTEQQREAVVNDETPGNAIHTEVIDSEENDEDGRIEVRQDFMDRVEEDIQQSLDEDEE
Chain of S. aureus DNA gyrase (P0A0K8 whole entry): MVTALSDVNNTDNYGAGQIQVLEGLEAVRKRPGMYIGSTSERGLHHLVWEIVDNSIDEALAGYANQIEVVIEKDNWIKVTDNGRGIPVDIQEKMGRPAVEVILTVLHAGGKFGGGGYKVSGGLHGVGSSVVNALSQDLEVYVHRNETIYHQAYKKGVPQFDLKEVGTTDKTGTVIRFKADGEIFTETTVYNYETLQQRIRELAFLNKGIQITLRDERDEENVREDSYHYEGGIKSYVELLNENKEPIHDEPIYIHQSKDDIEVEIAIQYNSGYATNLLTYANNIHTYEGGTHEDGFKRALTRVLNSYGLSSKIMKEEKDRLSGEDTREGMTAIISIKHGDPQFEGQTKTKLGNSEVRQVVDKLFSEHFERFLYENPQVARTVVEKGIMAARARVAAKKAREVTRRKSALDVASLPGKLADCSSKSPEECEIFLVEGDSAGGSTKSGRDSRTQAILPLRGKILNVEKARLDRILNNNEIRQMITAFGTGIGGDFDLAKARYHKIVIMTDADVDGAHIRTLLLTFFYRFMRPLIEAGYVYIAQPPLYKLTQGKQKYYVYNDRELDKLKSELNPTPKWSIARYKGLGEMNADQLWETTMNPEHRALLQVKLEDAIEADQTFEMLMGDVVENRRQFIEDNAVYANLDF
Staphylococcus aureus DNA gyrase was incubated at 37 °C for 30 min in a total reaction volume of 30 μl containing 40 mM HEPES. KOH (pH 7.6), 10 mM magnesium acetate, 10 mM DTT, 2 mM ATP, 500 mM potassium glutamate, 0.05 mg/ml albumin and Relaxed pBR322. DNA gyrase supercoiling reactions catalyzed by S. aureus gyrase, Stop reaction by adding 30 μL of STEB and 30 μL of chloroform/isoamyl alcohol (v:v, 24:1),and then Vortex briefly ~ 5 secs and centrifuge for 1 min. after which 20 µL of this was loaded on a 1% agarose gel that was then run at ~ 75 V for approximately 2 h. The gel was stained by (0.5 mg/L) ethidium bromide in water. Fluorescent images were taken at a wavelength of 300 nm on a UV transilluminator imaging system. The fluorescence intensity of the supercoiled plasmid reaction product was quantitated using ImagQuant software (Molecular Dynamics).

Data set [5] has as its system P. aeruginosa (ATCC 10,145). Description: Antibacterial MIC, standard agar cup diffusion method. The data set is classed as cell-based. The following applies: Pseudomonas aeruginosa, ATCC 10145, 37 °C, 24 h, read-out: MIC P. aeruginosa (Gram-negative). How it is done:
as §1, with “The antibacterial and antifungal activities of compounds, ketone 1, 2a-j, and 5a-i were evaluated in vitro against S. aureus (ATCC 6538), P. aeruginosa (ATCC 10,145), E. coli (ATCC 8739), and C. albicans (ATCC 10,231). […] Standard” for “. Standard”
as §2

Data set [6] has as its system E. coli (ATCC 8739). The data set is described as above. The data set is classed as cell-based. The following applies: Escherichia coli, ATCC8739, 37 °C, 24 h, read-out: MIC E. coli (Gram-negative). As for the experimental part:
as §1, with “The antibacterial and antifungal activities of compounds, ketone 1, 2a-j, and 5a-i were evaluated in vitro against S. aureus (ATCC 6538), P. aeruginosa (ATCC 10,145), E. coli (ATCC 8739), and C. albicans (ATCC 10,231). […] Standard” for “. Standard”
as §2

The subject of data set [7] is all tested strains, either Gram-positive or Gram-negative pathogens. Also noted: method as in doi:10.1016/j.cclet.2016.12.012, doi:10.1515/hc-2016-0125. Conditions: reference drug; cited from earlier work.
The test system of data set [8] is fluoroquinolones, vancomycin, and/or linezolid-resistant strains. The following applies: cited from earlier work.
Data set [9] has as its system Gram negative and Gram positive. Also noted: method as in PMID 14623004. Conditions: cited from earlier work.
The test system of data set [10] is Gram-negative pathogens. Also noted: method as in doi:10.1016/j.cclet.2016.12.012, doi:10.1515/hc-2016-0125. Conditions: cited from earlier work.
In data set [11] the test system is Gram-positive pathogens. Also noted: method as in doi:10.1016/j.cclet.2016.12.012, doi:10.1515/hc-2016-0125. Conditions: cited from earlier work.

Converted amounts (≈) assume the structure as drawn.

On to `COc1cc(-c2nc(SCC(=O)N3CCN(c4cc5c(cc4F)c(=O)c(C(=O)O)cn5C4CC4)CC3)[nH]c(=O)c2C#N)cc(OC)c1OC` [Compound 5i, 7-(4-(2-((5-Cyano-6-oxo-4-(3,4,5-trimethoxyphenyl)-1,6-dihydropyrimidin-2-yl)thio)acetyl)piperazin-1-yl)-1-cyclopropyl-6-fluoro-4-oxo-1,4-dihydroquinoline-3-carboxylic acid], for which the melting point fell in the range of 284 to 285 °C. Further, the “MIC range against the tested bacterial strains” value in data set [1] was 0.06 to 1.53 µg/mL. Further, in [2], the MIC is 0.74 µg/mL (≈ 1.07 µM). Besides, in [3], the minimal inhibitory concentration (MIC) is greater than 100 µg/mL. Besides, in [4], the IC50 stood at 1410 ± 70 nM. The MIC in data set [5] worked out at 0.13 µg/mL (≈ 0.188 µM). Moreover, the MIC in [6] is 0.63 µg/mL (≈ 0.912 µM).

Turning to `CC1(C)S[C@@H]2[C@H](NC(=O)[C@H](N)c3ccccc3)C(=O)N2[C@H]1C(=O)O` [ampicillin], in [7], the MIC was 3.9 to 250 µg/mL.

For `CC(=O)NC[C@H]1CN(c2ccc(N3CCN(c4cc5c(cc4F)c(=O)c(C(=O)O)cn5C4CC4)CC3)c(F)c2)C(=O)O1` [hybrid II], the MIC range in [8] is 0.25 to 0.5 µg/mL; in [9] it was 0.125 to 4 µg/mL.

With `COc1cccc(-c2nn(CN3CCN(c4cc5c(cc4F)c(=O)c(C(=O)O)cn5C4CC4)CC3)c(=S)n2Cc2ccc(Br)cc2Cl)c1` [hybrid I], the MIC was 0.01 to 1.32 µg/mL in data set [10] and less than 0.24 µg/mL in data set [11].
